Results as given in patent US6967196B1, “Sulfonamide compounds and uses thereof” (Bristol-Myers Squibb Company, priority 1999, dated 2005).
Where two headings read alike, the source gives them in different places.

Tested on: amyloid β production in transfected H4 (human neuroglioma) cells stably expressing APP constructs
Assay: In vitro cell-based assay of inhibitors of amyloid β production (ELISA)
Conditions: transfected H4 cells stably expressing APP, amyloid β in medium by ELISA, read-out: ACTIVITY (IC50, inhibition of amyloid β production)
Method: In Vitro Cell-Based Assay of Inhibitors of Amyloid β Production
Transfected H4 (human neuroglioma) cells stably expressing APP constructs are used to identify and assess inhibitors of Aβ production. In brief, cells lines are exposed to compounds, and the effect of each compound on amyloid β production is determined by measuring the amount of amyloid β produced using an enzyme linked immunosorbent assay (ELISA) that detects amyloid β (see, for example, Seubert et al., (1992) Nature, 359:325-327).
Transfected cells that stably express wild-type and variant forms of APP are plated in 96-well format plates at a density sufficient for the rapid detection of the secreted amyloid β (experimentally predetermined for a particular stable cell population). Cells are plated at least six hours prior to the introduction of the test compound at which time the growth medium is replaced by fresh medium containing the compound to be tested. All synthetic agents are initially screened at doses ranging from 10-100 μM. Higher dilutions of agents can be used to minimize cytotoxicity. Incubation of cells with a test compound continues for approximately 16 hours at which time aliquots of medium from each well are removed and assayed for amyloid β.
ELISA is carried out by methods known in the art (see, e.g., Haass et al., Antibodies: A Laboratory Manual, Harlow and lane, Editors, Cold Spring Harbor Press, 1988) The capture antibody is typically a mouse monoclonal (IgG1/kβ-APPa) which recognizes the carboxyl terminal epitope of amyloid β. The specificity of the capture antibody insures measurement of amyloid β without interference from other secreted APP fragments that share amino acid sequence (amyloid β 1-16) homology with amyloid β but lack the carboxy-terminal region. The detecting antibody is typically an affinity-purified rabbit polyclonal antibody that is specific for the amino terminus of amyloid β.
Results from test compounds are compared to results obtained when cells are treated with control agents. Amyloid β levels are determined by comparison to a standard curve obtained by subjecting a range of known amounts of amyloid β to the ELISA.
A compound is identified as “active” when it inhibits cellular production of amyloid β relative to levels in control samples by at least 50% at the initial tested concentration without significant cytotoxicity. Active compounds are then assayed in dose-response experiments to determine the lowest dose of compound necessary for inhibition of amyloid β production.

[1] = approximately 16 hours incubation
[2] = approximately 16 hours incubation, Table B

Row | IC50 [1] [nM] | IC50 (approx. 16 h incubation) [nM] | Substance | also measured
1 |  | 100 to 500 | 2-((1R)-1-{[(4-chlorophenyl)sulfonyl]-2,5-difluoroanilino}ethyl)benzyl 1,2,3,4-tetrahydro-1-naphthalenylcarbamate [Example 660] | 
2 |  | 100 to 500 | 2-((1R)-1-{[(4-chlorophenyl)sulfonyl]-2,5-difluoroanilino}ethyl)benzyl 2,5-difluorobenzylcarbamate [Example 639] | 
3 |  | 100 to 500 | 2-((1R)-1-{[(4-chlorophenyl)sulfonyl]-2,5-difluoroanilino}ethyl)benzyl 2-(4-chlorophenyl)ethylcarbamate [Example 731] | 
4 |  | 100 to 500 | 2-((1R)-1-{[(4-chlorophenyl)sulfonyl]-2,5-difluoroanilino}ethyl)benzyl 2-(diethylamino)ethylcarbamate [Example 662] | 
5 |  | 100 to 500 | 2-((1R)-1-{[(4-chlorophenyl)sulfonyl]-2,5-difluoroanilino}ethyl)benzyl 2-methoxyethylcarbamate [Example 669] | 
6 |  | 100 to 500 | 2-((1R)-1-{[(4-chlorophenyl)sulfonyl]-2,5-difluoroanilino}ethyl)benzyl 2-phenylethylcarbamate [Example 743] | 
7 |  | 100 to 500 | 2-((1R)-1-{[(4-chlorophenyl)sulfonyl]-2,5-difluoroanilino}ethyl)benzyl 2-phenylpropylcarbamate [Example 799] | 
8 | > 500 |  | 2-((1R)-1-{[(4-chlorophenyl)sulfonyl]-2,5-difluoroanilino}ethyl)benzyl 3,4-difluorobenzylcarbamate [Example 961] | 
9 | > 500 |  | 2-((1R)-1-{[(4-chlorophenyl)sulfonyl]-2,5-difluoroanilino}ethyl)benzyl 3-fluorobenzylcarbamate [Example 910] | 
10 |  | 100 to 500 | 2-((1R)-1-{[(4-chlorophenyl)sulfonyl]-2,5-difluoroanilino}ethyl)benzyl 4-fluorobenzylcarbamate [Example 748] | 
11 | 100 to 500 |  | 2-((1R)-1-{[(4-chlorophenyl)sulfonyl]-2,5-difluoroanilino}ethyl)benzyl (1S)-1-phenylethylcarbamate [Example 823] | 
12 | 100 to 500 |  | 2-((1R)-1-{[(4-chlorophenyl)sulfonyl]-2,5-difluoroanilino}ethyl)benzyl benzyl[2-(dimethylamino)ethyl]carbamate [Example 838] | 
13 | 100 to 500 |  | 2-((1R)-1-{[(4-chlorophenyl)sulfonyl]-2,5-difluoroanilino}ethyl)benzyl benzylcarbamate [Example 825] | 
14 |  | 100 to 500 | 2-((1R)-1-{[(4-chlorophenyl)sulfonyl]-2,5-difluoroanilino}ethyl)benzyl butyl(methyl)carbamate [Example 720] | 
15 |  | 100 to 500 | 2-((1R)-1-{[(4-chlorophenyl)sulfonyl]-2,5-difluoroanilino}ethyl)benzyl cyclohexylcarbamate [Example 675] | 
16 | > 500 |  | 2-((1R)-1-{[(4-chlorophenyl)sulfonyl]-2,5-difluoroanilino}ethyl)benzyl diethylcarbamate [Example 894] | 
17 |  | 100 to 500 | 2-((1R)-1-{[(4-chlorophenyl)sulfonyl]-2,5-difluoroanilino}ethyl)benzyl isopropylcarbamate [Example 674] | 
18 |  | 100 to 500 | 2-((1R)-1-{[(4-chlorophenyl)sulfonyl]-2,5-difluoroanilino}ethyl)benzyl sec-butylcarbamate [Example 758] | 
19 |  | 100 to 500 | 2-({[(4-chlorophenyl)sulfonyl]-2,5-difluoroanilino}methyl)phenyl acrylate [Example 681] | 
20 | > 500 |  | 2-({[(4-chlorophenyl)sulfonyl]anilino}methyl)phenyl trifluoromethanesulfonate [Example 1004] | 

Continued, substance first:

Row | Substance | IC50 [1] [nM] | IC50 (approx. 16 h incubation) [nM] | also measured
21 | 1-{3-[2-({[(4-chlorophenyl)sulfonyl]-2,5-difluoroanilino}methyl)phenoxy]propyl}-1-methylpiperidinium iodide [Example 1037] | > 500 |  | 
22 | 2,2,2-trichloro-N-{2-[2-(1-{[(4-chlorophenyl)sulfonyl]-2,5-difluoroanilino}ethyl)phenoxy]ethyl}-N-ethylacetamide [Example 744] |  | 100 to 500 | 
23 | 2,2,2-trichloro-N-{3-[2-({[(4-chlorophenyl)sulfonyl]-2,5-difluoroanilino}ethyl)phenoxy]propyl(methyl)carbamate [Example 876] | 100 to 500 |  | 
24 | 2,2,2-trichloro-N-{3-[2-({[(4-chlorophenyl)sulfonyl]-2,5-difluoroanilino}methyl)phenoxy]propyl}-N-methylacetamide [Example 853] | 100 to 500 |  | 
25 | 2,4,6-trichloro-N-{3-[2-(1-{[(4-chlorophenyl)sulfonyl]-2,5-difluoroanilino}ethyl)phenoxy]propyl}-N-methylbenzamide [Example 713] |  | 100 to 500 | 
26 | 2,4,6-trichloro-N-{3-[2-(1-{[(4-chlorophenyl)sulfonyl]-2,5-difluoroanilino}ethyl)phenoxy]propyl}benzamide [Example 728] |  | 100 to 500 | 
27 | 2,4-dichloro-N-{3-[2-(1-{[(4-chlorophenyl)sulfonyl]-2,5-difluoroanilino}ethyl)phenoxy]propyl}-5-fluoro-N-methylbenzamide [Example 750] |  | 100 to 500 | 
28 | 2,4-dichloro-N-{3-[2-(1-{[(4-chlorophenyl)sulfonyl]-2,5-difluoroanilino}ethyl)phenoxy]propyl}-5-fluorobenzamide [Example 682] |  | 100 to 500 | 
29 | 2,4-dichloro-N-{3-[2-(1-{[(4-chlorophenyl)sulfonyl]-2,5-difluoroanilino}ethyl)phenoxy]propyl}-N-methylbenzamide [Example 839] | 100 to 500 |  | 
30 | 2,4-dichloro-N-{3-[2-(1-{[(4-chlorophenyl)sulfonyl]-2,5-difluoroanilino}ethyl)phenoxy]propyl}-N-methylbenzenesulfonamide [Example 647] |  | 100 to 500 | 
31 | 2,4-dichloro-N-{3-[2-({[(4-chlorophenyl)sulfonyl]-2,5-difluoroanilino}methyl)phenoxy]propyl}-5-fluoro-N-methylbenzamide [Example 896] | > 500 |  | 
32 | 2-((1R)-1-{[(4-chlorophenyl)-sulfonyl]-2,5-difluoroanilino}ethyl)benzyl benzyl(methyl)carbamate [Example 715] |  | 100 to 500 | 
33 | 2-((1R)-1-{[(4-chlorophenyl)sulfonyl]-2,5-difluoroanilino}ethyl)-5-fluorobenzyl 2-(1-pyrrolidinyl)ethylcarbamate [Example 914] | > 500 |  | 
34 | 2-((1R)-1-{[(4-chlorophenyl)sulfonyl]-2,5-difluoroanilino}ethyl)-5-fluorobenzyl 2-methoxyethylcarbamate [Example 729] |  | 100 to 500 | 
35 | 2-((1R)-1-{[(4-chlorophenyl)sulfonyl]-2,5-difluoroanilino}ethyl)-5-fluorobenzyl 2-phenylethylcarbamate [Example 640] |  | 100 to 500 | 
36 | 2-((1R)-1-{[(4-chlorophenyl)sulfonyl]-2,5-difluoroanilino}ethyl)-5-fluorobenzyl 3-fluorobenzylcarbamate [Example 764] |  | 100 to 500 | 
37 | 2-((1R)-1-{[(4-chlorophenyl)sulfonyl]-2,5-difluoroanilino}ethyl)-5-fluorobenzyl 4-(trifluoromethyl)benzylcarbamate [Example 658] |  | 100 to 500 | 
38 | 2-((1R)-1-{[(4-chlorophenyl)sulfonyl]-2,5-difluoroanilino}ethyl)-5-fluorobenzyl bis(2-methoxyethyl)carbamate [Example 760] |  | 100 to 500 | 
39 | 2-((1R)-1-{[(4-chlorophenyl)sulfonyl]-2,5-difluoroanilino}ethyl)-5-fluorobenzyl sec-butylcarbamate [Example 795] |  | 100 to 500 | 
40 | 2-((1R)-1-{[(4-chlorophenyl)sulfonyl]-2,5-difluoroanilino}ethyl)benzyl 1-piperidinecarboxylate [Example 284] |  |  | IC50 [2]: 25 to 50 nM
41 | 2-[2-(1-{[(4-chlorophenyl)sulfonyl]-2,5-difluoroanilino}ethyl)phenoxy]-N-methylacetamide [Example 1064] | > 500 |  | 
42 | 2-[2-((1R)-1-{[(4-chlorophenyl)sulfonyl]-2,5-difluoroanilino}ethyl)-5-fluorophenyl]ethyl 2,5-difluorobenzylcarbamate [Example 358] |  |  | IC50 [2]: 50 to 100 nM
